Results as given in US7276604B2, “Crystalline form of the sodium salt of 3-pyridyl-1-hydroxyethylidene-1,1-bisphosphonic acid” (Zentiva A.S., priority 2002, dated 2007).
Where a name gives a salt, the structure may show the parent alone.

Columns and labels:
Assay type in all cases: physicochemical
[1] = Drying in vacuum oven and re-uptake of water (stability of water content, Karl Fischer / TGA); settings: for water content after standing at 100% relative air humidity: within two hours; for hygroscopicity of the dried product: after drying in a vacuum oven
Text: An useful example of such a hydrate is a modification that is characterized by water content 20 up to 23%, specially with 22.8 w. % of water, and sodium content 5.5 up to 7.5%, specially 6.4 up to 6.7 w. %. The specified water content is built in the crystal lattice and the mentioned crystalline modification is thermodynamically stable. By drying with several different drying regimes, the mentioned crystalline modification was dried to the water content corresponding to the pentahemihydrate, the monohydrate and the anhydrous form of sodium 3-pyridyl-1-hydroxyethylidene-1,1-bisphosphonate. When the substance is left standing on the air, the water content stabilizes spontaneously at the original level. Time that it takes for the water content to stabilize depends on relative humidity in the environment in which the dried substance is placed.
(§1) Water content in the substance was determined using a method according to Karl Fischer and TGA analyses. Sodium content in the substance was determined using acidobasic titration and AAS. Solubility tests were performed according to the Technical Guide European Pharmacopeia.
The dried product is hygroscopic. If the substance is left standing at room temperature and usual relative air humidity, the water content returns to the original level within 12 hours.
In the pentahydrate dried in a vacuum oven at 105° C., the substance's water content decreases to 3% after six hours. The dried product is hygroscopic. If the substance is left standing at room temperature and usual relative air humidity, the water content increases with a speed of about 0.5% an hour. Within 11 days, the substance's water content returns to about 20 weight %.
(§2) In trihydrate of the trisodium salt dried in a vacuum oven at 105° C., the substance's water content decreases to 1.1% after 6 hours. The dried product is hygroscopic. If the substance is placed in an environment with 100% relative air humidity, the water content returns to the original level within two hours.
as §2, with “disodium” for “trisodium”, “approximately 1.7%” for “1.1%”, “the” for “the original”, “level of approximately 5.2%” for “level”

[2] = Solubility test in 0.1 M HCl with pH 1.1 (Technical Guide European Pharmacopeia); settings: for dissolution observed: 0.1 M HCl pH 1.1, 0.1, 0.9, 2.0 and 7.0 ml added gradually, 25° C. for 15 min; for proportion of the dissolved substance: 0.1 M HCl pH 1.1, 10.0 ml added in total to about 100 mg, 25° C., HPLC
Protocol: as §1
(§3) 0.1 ml; 0.9 ml, 2.0 and 7.0 ml of 0.1 M HCl with pH 1.1 were gradually added to a 106.8 mg sample of risedronate monosodium salt pentahemihydrate. The suspension was mixed for 1 min and tempered to 25° C. for 15 min after each addition of acid. […] The proportion of the dissolved substance was determined to be 9.46% using HPLC.
as §3, with “99.07” for “106.8”, “pentahydrate.” for “pentahemihydrate.”, “31.62%” for “9.46%”

[3] = Solubility test in water (Technical Guide European Pharmacopeia); settings: for dissolution observed: 0.1, 0.9 and 2.0 ml added gradually, 25° C. for 15 min; for proportion of the dissolved substance: 3.0 ml added in total to about 100 mg, 25° C., HPLC
Protocol: as §1
(§4) 0.1 ml; 0.9 ml and 2.0 ml of water were gradually added to a 100.25 mg sample of risedronate monosodium salt pentahemihydrate. The suspension was mixed for about 1 min and tempered to 25° C. for 15 min after each addition of water. […] The proportion of the dissolved substance was determined to be 100% using HPLC.
as §4, with “98.78” for “100.25”, “pentahydrate.” for “pentahemihydrate.”

[4] = after drying at 105° C., 100% relative air humidity
[5] = vacuum oven at 105° C., after 6 hours

| Compound | dissolution observed [2] | proportion of the dissolved substance [2] | dissolution observed [3] | proportion of the dissolved substance [3] | hygroscopicity of the dried product [1] | water content after drying [1, 5] | further results |
| --- | --- | --- | --- | --- | --- | --- | --- |
| O=P(O)(O)C(O)(Cc1cccnc1)P(=O)(O)O [Risedronate disodium salt monohydrate, disodium 3-pyridyl-1-hydroxyethylidene-1,1-bisphosphonate] | – | – | – | – | – | – | water content after standing at 100% relative air humidity ([1]; after drying at 105° C., 100% relative air humidity, listed as trihydrate of the disodium salt): approximately 5.2%; period in which the water content mostly stabilizes at the given value ([1]; dried at different conditions, then high relative humidity, 'mostly'): less than 12 hours; water content after drying ([1]; vacuum oven at 105° C., after 6 hours, listed as trihydrate of the disodium salt): approximately 1.7% |
| O=P(O)(O)C(O)(Cc1cccnc1)P(=O)(O)O [risedronate monosodium salt pentahemihydrate] [monosodium 3-pyridyl-1-hydroxyethylidene-1,1-bisphosphonate, reference compound] | did not dissolve completely | 9.46% | completely dissolved | 100% | – | – | – |
| O=P(O)(O)C(O)(Cc1cccnc1)P(=O)(O)O [risedronate monosodium salt pentahydrate, monosodium 3-pyridyl-1-hydroxyethylidene-1,1-bisphosphonate] | did not dissolve completely | 31.62% | completely dissolved | 100% | hygroscopic | 3% | time for water content to return to the original level ([1]; after drying at 50° C., room temperature and usual relative air humidity): ≤ 12 h; water content after standing at 100% relative air humidity [1, 4]: 22.7%; speed of water content increase ([1]; after drying at 105° C., room temperature and usual relative air humidity): about 0.5 % an hour; water content after standing ([1]; after drying at 105° C., room temperature and usual relative air humidity, within 11 days): about 20 weight %; stability of the regained water content ([1]; usual lab conditions): stable and does not change; water content after drying ([1]; vacuum oven at 50° C., after six hours): 11.5%; solubility in 0.1 M hydrochloric acid compared with the pentahemihydrate form ([2]; 0.1 M HCl pH 1.1): significantly more soluble |
| O=P(O)(O)C(O)(Cc1cccnc1)P(=O)(O)O [trihydrate of the trisodium salt, trisodium 3-pyridyl-1-hydroxyethylidene-1,1-bisphosphonate] | – | – | – | – | hygroscopic | 1.1% | time for water content to return to the original level [1, 4]: two |
